Reference: US20210023089A1, “Compositions Useful for Treating Herpes Simplex Keratitis, and Methods Using Same” (priority 2013, published 2021)

How the values were obtained:
HSV-1 [1] = assay: Plaque assay of supernatants from HSV-1 infected HCE cells; type: cell-based, HSV-1 (KOS strain); conditions: MOI 0.1, 10 μM, vs controls
Procedure: All cells were cultured at 37° C. and 5% CO2, and supplemented with 100 U/ml penicillin and 100 μg/ml streptomycin. Human corneal epithelial cells immortalized with hTERT (hTCEpi; Bahassi et al., 2008, Oncogene 27:3977-3985) were grown in complete KGM-2 medium. Human corneal epithelial cells immortalized with SV40 large T antigen (HCE; Araski-Sasaki et al., 1995, Invest. Ophthalmol. Visual Sci. 36:614-621), as well as African green monkey kidney fibroblasts (CV-1; Jensen et al., 1964, Proc. Natl. Acad. Sci. USA 52:53-59), were grown in DMEM medium supplemented with 10% FBS. KOS strain (Smith, Proc. Soc. Exp. Biol. Med. Soc. Exp. Biol. Med. 115:814-816) of HSV-1 was used in all infections. All viral stocks were titered on CV-1 monolayers.
Cells were grown in 6-well plates and used in experiments at […] confluence. Drug treatments were administered 45 min prior to infection and continued for the entire duration of each experiment. Unless indicated otherwise, Chk2 inhibitor II (>98% purity by HPLC) was used at 10 μM final concentration, and phosphonoacetic acid (PAA) at 400 μg/ml (both from Sigma-Aldrich, St. Louis, Mo.). Chk2 inhibitor II was dissolved in DMSO such that the final concentration of DMSO in both Chk2 inhibitor II and mock treatment was 0.1%. […]

human corneas = type: cell-based
Procedure: Human corneas were obtained from the Lions Eye Bank of Delaware Valley. Rabbit corneas were excised from intact fresh eyeballs of young (8-12 weeks) albino rabbits (Pel-Freez Biologicals, Rogers, Ark.). Protocol (Alekseev et al., 2012, J Vis Exp 69:e3631) for ex vivo corneal culture, infection, and treatment was followed closely. Briefly, corneoscleral buttons were excised and rinsed in PBS containing 200 U/mL penicillin and 200 μg/mL streptomycin. The endothelial concavity was filled with culture medium containing 1% low melting temperature agarose. The corneas were cultured epithelial side up in MEM medium supplemented with nonessential amino acids (1×), 2 mM […], 200 U/mL penicillin, and 200 μg/mL streptomycin. The next day, they were infected with 1×10^4 plaque forming units (PFU)/cornea of strain KOS HSV-1 for 1 hour, rinsed, and overlaid with fresh medium. Drug treatments were administered at the same concentrations as for cultured cells. For KU-55933 bioavailability assessment, corneas were treated with bleomycin (200 μg/mL) for 1 hour. The epithelial cell layer was collected by scraping to isolate DNA or protein. […] Treatment toxicity was assessed by briefly staining the cornea with fluorescein (1% wt/vol in PBS) and imaging the epithelial defects with 464-nm wavelength blue light (LDP LLC, Carlstadt, N.J.).

hTCEpi cells = assay: Colony survival assay; type: cell-based, human
Procedure: hTCEpi cells were treated with KU-55933 (10 μM) or DMSO for 24 hours, trypsinized, counted, and plated into 6-cm dishes at 50 cells/dish. After 2 weeks, colonies were fixed with 10% buffered formalin, stained with 0.01% crystal violet, rinsed, and counted.

HSV-1 [2] = assay: HSV-1 replication (relative genome level) in normal and cancer cell lines; type: cell-based; conditions: KU-55933 10 μM
Procedure: All cells were cultured at 37° C. and 5% CO2, and supplemented with 100 U/ml penicillin and 100 μg/ml streptomycin. hTCEpi human corneal epithelial cells were cultured in KGM-2 (Lonza, Basel, Switzerland). HCE human corneal epithelial cells were cultured in DMEM/F-12 supplemented with 10% FBS. EPC2 human esophageal epithelial cells were cultured in KSFM (Carlsbad, Calif.). OKF6 human oral epithelial cells were cultured in KSFM. E5 cells, which are CV-1 cells stably expressing HSV-1 ICP4 protein, were cultured in DMEM supplemented with 10% FBS. HEK293 human embryonic kidney epithelial cells, HeLa human cervical adenocarcinoma cells, U2OS human osteosarcoma cells, H1299 human lung carcinoma cells, and SH-SY5Y human neuroblastoma cells were all obtained from American Type Culture Collection and cultured in DMEM supplemented with 10% FBS.
Total DNA was isolated from infected cells using the DNeasy Blood & Tissue Kit (QIAGEN, Hilden, Germany). Real time quantitative PCR was performed with SYBR Green (Bio-Rad, Hercules, Calif.). Target primers for UL30 (DNA polymerase catalytic subunit) and reference primers for GAPDH were used to measure genome replication. Primer sequences were provided in Alekseev et al., 2014, Invest. Ophthalm. Vis. Sci. 55:706-715). Real time PCR data were processed using the ΔΔC(t) method. […]

McKrae strain HSV-1 = assay: Mouse model of ocular HSV-1 keratitis, disease scoring; type: in vivo, C57BL/6J mice; conditions: 200 μM topical
Procedure: Four-week-old female C57BL/6J mice were anesthetized with isoflurane, and their left eyes were scarified in a 4×4 crosshatch pattern with a 28-gauge needle. […] strain HSV-1 was applied in 1 μL inoculum volume at 8×10^5 PFU/eye and the eyelid gently massaged. The infection was allowed to develop for 24 hours, at which point treatments were initiated. KU-55933 was delivered to the corneas dissolved in PBS to a concentration of 200 μM. Control treatments constituted an equivalent amount of DMSO (0.2% vol/vol) in PBS drops. Treatments were administered every 4 hours for 1 full day and then every 8 hours for the remainder of the experiment. Ocular disease severity was assessed at every 24-hour period postinfection. Two disease parameters were scored based on a number scale (Jose et al., 2013, Invest Ophthalmol Vis Sci 54:1070-1079). Briefly, stromal keratitis was scored as 1+, cloudiness, some iris detail visible; 2+, iris detail obscured; 3+, cornea totally opaque; and 4+, corneal perforation. Blepharitis was scored as 1+, puffy eyelids; 2+, puffy eyelids with some crusting; 3+, eye swollen shut with severe crusting; and 4+, eye completely swollen shut and crusted over.

SMILES | generation of infectious viral particles (plaque assay) (HSV-1 [1]) | surface defects of explanted human corneas (human corneas) | survival and proliferation of cultured cells after treatment (hTCEpi cells; 2 full weeks following a 24-hour treatment) | clonal survival compared to mock-treated controls (hTCEpi cells; hTCEpi cells, KU-55933 10 μM continuously for 24 hours) | HSV-1 replication in transformed or cancer cell lines (HSV-1 [2]; HeLa, U2OS, H1299, SH-SY5Y) | HSV-1 replication in normal cell types (HSV-1 [2]; hTCEpi, HCE, OKF6, EPC2) | difference in blepharitis score versus control group (McKrae strain HSV-1) | stromal disease severity (stromal keratitis score) (McKrae strain HSV-1; started 24 hpi, every 4 hours for 1 day then every 8 hours) | stromal keratitis state by day 5 postinfection, on average (McKrae strain HSV-1; all control mice developed corneal perforation)
NC(=O)c1ccc2[nH]c(-c3ccc(Oc4ccc(Cl)cc4)cc3)nc2c1 [Chk2 inhibitor II, 2-(4-(4-chlorophenoxy)phenyl)-1H-benzimidazole-5-carboxamide] | reduction |  |  |  |  |  |  |  | 
O=c1cc(-c2cccc3c2Sc2ccccc2S3)oc(N2CCOCC2)c1 [KU-55933, 2-(morpholin-4-yl)-6-(thianthren-1-yl)-pyran-4-one] |  | did not develop any surface defects | able to survive and proliferate well | roughly 70% | little effect | potently suppressed | not statistically significant | notable and statistically significant reduction | only corneal opacity
